How the values were obtained:
[1] = biological target: T1, plasminogen (Mus musculus, UniProt P20918); assay: Burn wound model: plasminogen accumulation in wound skin extracts (ELISA); assay type: in vivo; settings: WT mice, TXA 800 mg/kg injected three times at 8 h intervals, skin at 24 h after wounding, compared to mice treated with PBS
T1 construct: Burn wounds were introduced to three WT mice and TXA (800 mg/kg) was injected three times at 8 h intervals; from tissue; host or cells: skin of wild-type mice (burn wound), in vivo
Protocol: Dorsal skin samples from irradiated and not-irradiated control mice were homogenized in a lysis buffer (50 mM Tris-HCl buffer pH 8.0 with 120 mM NaCl, 1 mM EDTA, 6 mM EGTA, 1% NP-40 and 1 mM DTT) supplemented with PhosSTOP phosphatase inhibitors and Complete Ultra mini protease inhibitor cocktail tablets (both from Roche, Basel, Switzerland). The skin extracts were then kept at −20° C. until use. Total protein concentration in the extracts was quantified using Pierce BCA protein assay kit, according to the manufactural instruction (ThermoFisher Scientific, Waltham, U.S.A). Mouse IL-6 and TNF-alpha levels in the extracts were measured using specific ELISA kits from eBioscience (San Diego, U.S.A). Mouse plasminogen was quantified with a mouse plasminogen-specific ELISA (Omnio AB, Umeå, Sweden).
Mice were anesthetized with Dormicum/Hypnorm and burn wounds were made with a brass stave as described previously (Shen et al. 2012, Blood 119:5879). The mice were given a single injection of Temgesic (Schering-Plough, Brussels, Belgium) the day after burning. All mice were individually caged, and wounds were neither sutured nor dressed.
Initially, the burn wound model (Shen et al. 2012, Blood 119:5879) was used to test whether TXA has an effect on plasminogen accumulation in the wound. […]

[2] = system: radiation-induced dermatitis; assay: Radiation-induced dermatitis model (15 Gy to dorsal skin), radio-dermatitis documented by photos and scored; assay type: in vivo, mouse; settings: for development and severity of radio-dermatitis: irradiated WT mice
Protocol: Dorsal skin of mice had been shaved 3 days prior to irradiation. For the irradiation, the mice were anesthetized by intraperitoneal injection of 150 μl mixture containing Ketaminol vet. (Intervet AB, Sollentuna, Sweden) and Dormitor vet. (Orion Pharma AB, Espoo, Finland). Mice were laid into a lead box to protect the whole body from irradiation, while the dorsal skin was gently stretched out through a 4 cm-long gap in the bottom of the box and maintained with medical tape. Irradiation box with a mouse was then placed in Gammacell 40 exactor (Ashford, UK) that has two Caesium-137 sources. Irradiation was given as a single dose of 1 Gy per minute over 15 min (total dose 15 Gy).
Digital photographs of the dorsal skin were taken on the specified days after irradiation. The wound size was quantified using Image J (National Institute of Mental Health, Bethesda, Md.). Severity of radio-dermatitis was scored, with the scores defined as: 0=normal, 1=erythema, 2=desquamation, 3=ulcer.
WT and plg^+/− were intraperitoneally injected with 800 mg/kg of TXA in PBS three times per day. The injections started 2 days before the irradiation and continued for 15 days after the irradiation. Development of dermatitis was documented by digital photos and skin samples were analyzed as described in Example 2.
(§1) In this experiment, mice were treated as in Example 3, with the exception that TXA was given in drinking water in dose 700 mg/kg/day. Real-time PCR was performed as described in Example 3.

[3] = system: IL-1β; assay: Quantitative RT-PCR of irradiated skin: IL-1β mRNA; assay type: in vivo, mouse; settings: irradiated WT mice, TXA in drinking water, day 9 after irradiation
Protocol: (§2) Skin samples were homogenized in TRIzol (Ambion) using Precellys CK28R tubes on a Precellys 24 homogenizer (both from Bertin Technologies, France) according to the manufacturer's instructions. Total RNA was extracted with PureLink RNA Mini Kit (Ambion) according to the manufacturer's instruction. 2.5 μg of total RNA was reverse transcribed using Superscript VILO cDNA synthesis kit (Invitrogen) and diluted 3 fold with DEPC-water. Expression of genes were analyzed using quantitative real-time PCR with Comparative CT method and with TBP mRNA as the internal reference gene. The gene-specific primers and probes (TaqMan Gene Expression Assays) were from Applied Biosytems, and 2× SsoAdvanced Universal Probes Supermix was from BIO-RAD. Each sample was run in triplicate on StepOnePlus Instrument (Applied Biosystems) using real-time PCR cycling conditions for 2× SsoAdvanced Universal Probes Supermix.
as §1

[4] = system: IL-6; assay: Quantitative RT-PCR of irradiated skin: IL-6 mRNA; assay type: in vivo, mouse; settings: irradiated WT mice, TXA in drinking water, day 9 after irradiation
Protocol: as §2, §1

[5] = system: TGF-β; assay: Quantitative RT-PCR of irradiated skin: TGF-β mRNA; assay type: in vivo, mouse; settings: irradiated WT mice, TXA in drinking water, day 9 after irradiation
Protocol: as §2, §1

[6] = system: PAI-1; assay: Quantitative RT-PCR of irradiated skin: PAI-1 mRNA; assay type: in vivo, mouse; settings: irradiated WT mice, TXA in drinking water, day 9 after irradiation
Protocol: as §2, §1

T1 sequence (P20918 20-812 limits assumed): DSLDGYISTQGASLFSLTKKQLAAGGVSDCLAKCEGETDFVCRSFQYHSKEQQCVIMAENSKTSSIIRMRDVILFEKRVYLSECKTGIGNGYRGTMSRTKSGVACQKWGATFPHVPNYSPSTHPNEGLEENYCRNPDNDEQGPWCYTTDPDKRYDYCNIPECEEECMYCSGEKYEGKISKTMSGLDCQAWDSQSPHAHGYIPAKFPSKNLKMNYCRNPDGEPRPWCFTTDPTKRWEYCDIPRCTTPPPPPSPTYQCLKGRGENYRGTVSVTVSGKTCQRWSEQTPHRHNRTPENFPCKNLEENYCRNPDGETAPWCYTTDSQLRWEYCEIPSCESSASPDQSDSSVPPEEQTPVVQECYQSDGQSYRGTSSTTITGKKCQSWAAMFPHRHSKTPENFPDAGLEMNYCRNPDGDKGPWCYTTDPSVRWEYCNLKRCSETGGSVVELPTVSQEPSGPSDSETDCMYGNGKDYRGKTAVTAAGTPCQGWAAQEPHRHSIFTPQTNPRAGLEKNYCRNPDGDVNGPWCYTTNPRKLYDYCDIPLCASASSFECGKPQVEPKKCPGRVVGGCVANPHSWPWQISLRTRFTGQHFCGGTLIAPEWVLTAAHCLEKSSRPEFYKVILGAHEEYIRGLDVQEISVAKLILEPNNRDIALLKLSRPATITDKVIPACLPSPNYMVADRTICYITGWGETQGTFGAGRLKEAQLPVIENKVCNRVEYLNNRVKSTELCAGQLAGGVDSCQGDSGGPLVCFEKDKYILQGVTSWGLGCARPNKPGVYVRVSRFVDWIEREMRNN

- inhibition of plasminogen accumulation in wounds [1]: 50%
SMILES: NC[C@H]1CC[C@H](C(=O)O)CC1 [TXA, trans-4 (aminomethyl) cyclohexanecarboxylic acid]
- development and severity of radio-dermatitis ([2]; TXA 800 mg/kg intraperitoneally three times per day, from 2 days before to 15 days after irradiation, vs carrier): delayed development of dermatitis and with a lower severity
- development and severity of radio-dermatitis ([2]; TXA in drinking water 700 mg/kg/day, vs control WT mice treated with water only): significant delay in development of radio-dermatitis and a lower severity of skin damage
- development of radio-dermatitis ([2]; irradiated plg+/- mice, TXA 800 mg/kg intraperitoneally three times per day, from 2 days before to 15 days after irradiation): completely blocked
- formation of radiodermatitis ([2]; irradiated plg+/- mice, TXA in drinking water 700 mg/kg/day): totally inhibited formation of radiodermatitis
- level of IL-1β expression in skin [3]: very low
- expression of IL-6 in skin [4]: decreased expression
- expression of TGF-β in skin [5]: decreased expression
- expression of PAI-1 in skin [6]: decreased expression

From patent US20180280329A1, “INHIBITORS OF PLASMINOGEN FOR TREATING, REDUCING OR PREVENTING RADIATION-INDUCED INJURIES” (OMNIO AB, priority 2015, published 2018)
